From ChEMBL document CHEMBL1201862, “PubChem BioAssay data set” (2004)
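Dose response: 5 concentrations. Exposure: 48 h. Format: 96-well plates. Endpoint: linear interpolation; highest concentration if not reached. The concentration for 50% growth inhibition is given as GI50.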 Calls of active or inactive are those of the source. No stated cut-off is given here; in the data, active = GI50 up to about 1.1 µM and inactive = higher.

Columns and labels:
Assay in all cases: NCI-60 cell line screen, 48 h
SR = system: SR
SK-MEL-28 = system: SK-MEL-28
U-251 = system: U-251
OVCAR-4 = system: OVCAR-4
SF-295 = system: SF-295
SNB-19 = system: SNB-19
NCI-H23 = system: NCI-H23
LOX IMVI = system: LOX IMVI
HCT-15 = system: HCT-15
SK-OV-3 = system: SK-OV-3
HOP-62 = system: HOP-62
UO-31 = system: UO-31
NCI-H522 = system: NCI-H522
BT-549 = system: BT-549
MDA-N = system: MDA-N
NCI-H226 = system: NCI-H226
SF-539 = system: SF-539
SW-620 = system: SW-620
HT-29 = system: HT-29

SMILES	GI50 (SR)	GI50 (SK-MEL-28)	GI50 (U-251)	GI50 (OVCAR-4)	GI50 (SF-295)	GI50 (SNB-19)	GI50 (NCI-H23)	GI50 (LOX IMVI)	GI50 (HCT-15)	GI50 (SK-OV-3)	GI50 (HOP-62)	GI50 (UO-31)	GI50 (NCI-H522)	GI50 (BT-549)	GI50 (MDA-N)	GI50 (NCI-H226)	GI50 (SF-539)	GI50 (SW-620)	GI50 (HT-29)
CCCCCCC(O)C(=O)OC1C2C(CC1(C)C)C(O)C13OC1C(O)C1(CO1)[C@@]23C (stereo not given in full)	52.2 µM (inactive)	39.3 µM (inactive)	37.1 µM (inactive)	22.7 µM (inactive)	71.4 µM (inactive)	65.2 µM (inactive)	58.2 µM (inactive)	19.2 µM (inactive)	81.7 µM	61.2 µM (inactive)	58.7 µM (inactive)	66.8 µM (inactive)	61.1 µM (inactive)	50.1 µM (inactive)	45.4 µM (inactive)				
COc1ccc(C(C)NNC(=O)c2cc[n+]([BH2-]C#N)cc2)c(OC)c1 (stereo not given)	> 100 µM (inactive)	> 100 µM (inactive)	> 100 µM (inactive)	69.5 µM (inactive)	> 100 µM (inactive)	> 100 µM (inactive)		> 100 µM (inactive)	> 100 µM			> 100 µM (inactive)	> 100 µM (inactive)	> 100 µM (inactive)	> 100 µM (inactive)	> 100 µM (inactive)	> 100 µM (inactive)	> 100 µM (inactive)	
CN1CCN(CCCN)CC1	> 100 µM (inactive)	> 100 µM (inactive)	> 100 µM (inactive)	> 100 µM (inactive)	> 100 µM (inactive)	> 100 µM (inactive)	> 100 µM (inactive)	> 100 µM (inactive)	> 100 µM	> 100 µM (inactive)	> 100 µM (inactive)	> 100 µM (inactive)	> 100 µM (inactive)	> 100 µM (inactive)	> 100 µM (inactive)	> 100 µM (inactive)		> 100 µM (inactive)	> 100 µM (inactive)
C/C(=N\N=C(/S)SCc1ccccc1)c1ccccn1	< 0.01 µM (active)		< 0.0192 µM (active)	< 0.01 µM (active)	0.514 µM (active)	2.97 µM (inactive)	< 0.01 µM (active)		< 0.01 µM	< 0.01 µM (active)	< 0.01 µM (active)	0.0183 µM (active)	0.311 µM (active)	1.13 µM (inactive)	0.971 µM (active)	< 0.01 µM (active)	0.303 µM (active)	< 0.01 µM (active)	< 0.01 µM (active)
O=C(NCCN1CCOCC1)c1cn2c(ccc3sc4ccccc4c(=O)c32)n1	9.73 µM (inactive)	46.9 µM (inactive)	10 µM (inactive)		11 µM (inactive)	87.5 µM (inactive)	20.7 µM (inactive)	10.3 µM (inactive)	10.3 µM		12.3 µM (inactive)	> 100 µM (inactive)	10.7 µM (inactive)	27.8 µM (inactive)	28.3 µM (inactive)	32 µM (inactive)	45.3 µM (inactive)	4.85 µM (inactive)	6.56 µM (inactive)
CCOC(=O)c1ccc(-n2cnc(-c3ccc([N+](=O)[O-])cc3)c2)cc1	> 100 µM (inactive)	> 100 µM (inactive)	25.2 µM (inactive)		> 100 µM (inactive)	35.7 µM (inactive)	82.6 µM (inactive)	> 100 µM (inactive)	> 100 µM	> 100 µM (inactive)	94.2 µM (inactive)	> 100 µM (inactive)	13.1 µM (inactive)	36.5 µM (inactive)	> 100 µM (inactive)	> 100 µM (inactive)	> 100 µM (inactive)	75.7 µM (inactive)	> 100 µM (inactive)
